Source: paper PMC5826148, “Whole-Cell Screen of Fragment Library Identifies Gut Microbiota Metabolite Indole Propionic Acid as Antitubercular” (Antimicrobial Agents and Chemotherapy, 2018)
≈ marks a conversion by molar mass, not a printed value. Where two headings read alike, the source gives them in different places.

Tests used:
[1] = tested on: M. tuberculosis H37Rv; experiment: M. tuberculosis growth inhibition dose-response (MIC50), turbidity readout; format: cell-based, Mycobacterium tuberculosis; settings: H37Rv, 10 days, read-out: Antibacterial activity (MIC50) M. tuberculosis
[2] = tested on: M. tuberculosis H37Rv; experiment: Bactericidal activity, CFU enumeration on agar after treatment; format: cell-based, Mycobacterium tuberculosis; settings: M. tuberculosis, 1 mM, log CFU/ml reduction from initial inoculum; for log reduction at 1000 µM: Mycobacterium tuberculosis, H37RV, read-out: Bactericidal activity (log reduction) at 1 mM
[3] = tested on: M. tuberculosis; experiment: Growth inhibition in acidic medium (pH 6.2); format: cell-based, Mycobacterium tuberculosis; settings: pH 6.2, read-out: Activity (MIC50) in acidic medium (pH 6.2)
[4] = tested on: M. bovis BCG Pasteur; experiment: microbe, parasite or virus in culture; format: cell-based; settings: for MIC50: Mycobacterium tuberculosis variant bovis BCG, BCG, read-out: Antibacterial activity (MIC50) M. bovis BCG
[5] = tested on: M. smegmatis; experiment: Spectrum of activity: M. smegmatis growth inhibition; format: cell-based; settings: 1 day, read-out: Antibacterial activity (MIC50) M. smegmatis
[6] = tested on: M. avium; experiment: Spectrum of activity: M. avium growth inhibition; format: cell-based; settings: 4 days, read-out: Antibacterial activity (MIC50) M. avium
[7] = tested on: M. abscessus; experiment: Spectrum of activity: M. abscessus growth inhibition; format: cell-based; settings: 3 days, read-out: Antibacterial activity (MIC50) M. abscessus
[8] = tested on: Staphylococcus aureus; experiment: Spectrum of activity: S. aureus growth inhibition; format: cell-based; settings: LB medium, overnight, read-out: Antibacterial activity (MIC50) S. aureus
[9] = tested on: Escherichia coli; experiment: Spectrum of activity: E. coli growth inhibition; format: cell-based; settings: LB medium, overnight, read-out: Antibacterial activity (MIC50) E. coli
[10] = tested on: mice; settings: 100 mg/kg oral on three consecutive days, monitored 7 days
[11] = set-up: method as in PMID 24563545; settings: cited from earlier work
[12] = tested on: human red blood cells (RBCs); experiment: Red blood cell lysis assay; settings: hemolysis
[13] = Pharmacokinetic study in uninfected CD-1 mice; settings: for AUC(0-t) / Cmax: Ave +/- SD, n=3
[14] = Endogenous plasma levels of IPA in naive mice
[15] = tested on: M. tuberculosis H37Rv; experiment: Mouse model of acute M. tuberculosis infection; settings: for Lungs CFU log10, mean difference from drug-free control / Spleen CFU log10, mean difference from drug-free control: Day 42, IPA 100 mg/kg, oral gavage 6 days/week, 4 weeks
[16] = Cytotoxicity assay, THP-1 cells (CellTiter 96 AQueous One); settings: human
[17] = Cytotoxicity assay, HepG2 cells (CellTiter 96 AQueous One); settings: human, HepG2 cells
[18] = tested on: THP-1 cells; experiment: Cytotoxicity assay, THP-1 cells (CellTiter 96 AQueous One); settings: read-out: Cytotoxicity THP-1 cells CC50; 24 h
[19] = tested on: HepG2 cells; experiment: Cytotoxicity assay, HepG2 cells (CellTiter 96 AQueous One); settings: read-out: Cytotoxicity HepG2 cells CC50; 24 h
[20] = Mycobacterium tuberculosis, 240 h
[21] = Mycolicibacterium smegmatis, 24 h
[22] = Mycobacteroides abscessus, 72 h

In the case of `O=C(O)CCc1c[nH]c2ccccc12` [Fragment F1], the MIC50 [1, 20] is reported as 68 µM (≈ 12.9 µg/mL), the log reduction at 1000 µM [2] is reported as 1.76 and the MIC50 ([3]; Mycobacterium tuberculosis) is reported as 62 µM (≈ 11.7 µg/mL). For the same compound, the MIC50 [4] was 98 µM (≈ 18.5 µg/mL), the MIC50 [5, 21] was 477 µM (≈ 90.3 µg/mL) and the MIC50 ([6]; Mycobacterium avium, 96 h) was 119 µM (≈ 22.5 µg/mL). The MIC50 [7, 22] was over 500 µM, the MIC50 ([8]; Staphylococcus aureus) was over 500 µM and the MIC50 ([9]; Escherichia coli) was over 500 µM. The “Acute toxicity: behavior and gross pathology of major organs” value [10] was “None of the mice showed abnormal behavior”, the “logarithm of partition coefficient between n-octanol and water” value [11] was 2.15 and the “RBCs HC50” value [12] was >1,000 μM. The “time plasma levels above the MIC50” value ([13]; 100 mg/kg oral) was “more than 50 % of the dosing interval”, the Vd ([13]; CD-1, mouse, plasma, iv, 5 mg/kg) was 0.25 L/kg and the AUC(0-t) ([13]; CD-1, mouse, plasma, iv, 5 mg/kg, AUC[0-8], Intravenous 5 mg/kg) was 72 ± 3 µg·h/mL. The AUC(0-t) ([13]; CD-1, mouse, plasma, po, 100 mg/kg, AUC[0-8], Oral 100 mg/kg in CMC (suspension)) was 315 ± 88 µg·h/mL, the AUC(0-t) ([13]; CD-1, mouse, plasma, po, 100 mg/kg, AUC[0-8], Oral 100 mg/kg in PEG (solution)) was 312 ± 59 µg·h/mL and the AUC(0-t) ([13]; CD-1, mouse, plasma, po, 100 mg/kg, AUC[0-24], Oral 100 mg/kg in CMC (suspension)) was 442 ± 271 µg·h/mL. For the same compound, the AUC(0-t) ([13]; CD-1, mouse, plasma, po, 100 mg/kg, AUC[0-24], Oral 100 mg/kg in PEG (solution)) was 471 ± 129 µg·h/mL, the Cmax ([13]; CD-1, mouse, plasma, po, 100 mg/kg, Oral 100 mg/kg in CMC (suspension)) was 67 ± 28 µg/mL and the Cmax ([13]; CD-1, mouse, plasma, po, 100 mg/kg, Oral 100 mg/kg in PEG (solution)) was 118 ± 10 µg/mL. The bioavailability ([13]; CD-1, mouse, plasma, po, 100 mg/kg, F (oral bioavailability), Oral 100 mg/kg in CMC (suspension)) was 30.8%, the bioavailability ([13]; CD-1, mouse, plasma, po, 100 mg/kg, F (oral bioavailability), Oral 100 mg/kg in PEG (solution)) was 32.9% and the bioavailability ([13]; CD-1, mouse, plasma, po, 100 mg/kg, oral bioavailability, 100 mg/kg oral) was 30 to 33%. The “Endogenous plasma level, Average” value ([14]; time 0.25 h) was 589 ng/mL, the “Endogenous plasma level, Average” value ([14]; time 1 h) was 514 ng/mL and the “Endogenous plasma level, Average” value ([14]; time 3 h) was 455 ng/mL. For the same compound, the “Endogenous plasma level, Average” value ([14]; time 5 h) was 404 ng/mL, the “Endogenous plasma level, Average” value ([14]; time 8 h) was 629 ng/mL and the “reduction of bacterial load in the spleen versus untreated mice” value ([15]; 100 mg/kg oral, 6 days/week for 4 weeks) was 7 fold. The “adverse events or abnormal behavior over the course of drug treatment” value ([15]; 100 mg/kg, six consecutive days per week for 4 weeks, infected mice) was “None of the animals showed signs of adverse events or abnormal behavior”, the “Lungs CFU log10, mean difference from drug-free control” value ([15]; INH 25 mg/kg) was -0.28 log10 CFU and the “Spleen CFU log10, mean difference from drug-free control” value ([15]; INH 25 mg/kg) was -0.82 log10 CFU. The CC50 at 24 h [16] was over 1000 µM and the CC50 at 24 h [17] was over 1000 µM.
For `NC(=S)COc1cccc(Cl)c1` [Fragment F13, 2-(3-Chlorophenoxy) ethanethioamide], the MIC50 [1] was 211 µM (≈ 42.6 µg/mL), the “Bactericidal activity (log reduction) at 1 mM” value [2] was 0.90 log reduction and the MIC50 [3] was 75 µM (≈ 15.1 µg/mL). The “Antibacterial activity (MIC50) M. bovis BCG” value [4] was over 500 µM, the MIC50 [5] was 409 µM (≈ 82.5 µg/mL) and the MIC50 [6] was 387 µM (≈ 78 µg/mL). The MIC50 [7] was 289 µM (≈ 58.3 µg/mL), the MIC50 [8] was over 500 µM and the MIC50 [9] was over 500 µM. For the same compound, the “RBCs HC50” value [12] was 904 µM, the CC50 [18] was 656 µM and the CC50 [19] was 467 µM.
In the case of `NNC(=O)c1ccncc1` [INH, isoniazid, reference compound], the “Lungs CFU log10, mean difference from drug-free control” value ([15]; INH 25 mg/kg) is reported as -3.82 log10 CFU, the “Spleen CFU log10, mean difference from drug-free control” value ([15]; INH 25 mg/kg) is reported as -5.49 log10 CFU and the “effect on bacterial load of spleen” value ([15]; INH 25 mg/kg, 4 weeks of monotherapy) is reported as “sterilized the spleen”.
For `Cc1cc2cc(N)ccc2[nH]1` [Fragment F21, 2-Methyl-1H-indol-5-amine], the MIC50 [1, 20] was 281 µM (≈ 41.1 µg/mL), the log reduction at 1000 µM [2] was 2.5 and the MIC50 ([3]; Mycobacterium tuberculosis) was 305 µM (≈ 44.6 µg/mL). It also gave an MIC50 [4] of 398 µM (≈ 58.2 µg/mL), an MIC50 [5, 21] of 401 µM (≈ 58.6 µg/mL) and an MIC50 ([6]; Mycobacterium avium, 96 h) of over 500 µM. For the same compound, the MIC50 [7, 22] was over 500 µM, the MIC50 ([8]; Staphylococcus aureus) was 487 µM (≈ 71.2 µg/mL) and the MIC50 ([9]; Escherichia coli) was over 500 µM. For the same compound, the “RBCs HC50” value [12] was >1,000 μM, the CC50 at 24 h [16] was 409 µM and the CC50 at 24 h [17] was 387 µM.
`Nc1ccc2oc3c(c2c1)CCCC3` [Fragment F5, 6,7,8,9-Tetrahydrodibenzo [b,d]furan-2-amine] showed an MIC50 [1, 20] of 245 µM (≈ 45.9 µg/mL), a log reduction at 1000 µM [2] of 1.11 and an MIC50 ([3]; Mycobacterium tuberculosis) of 62 µM (≈ 11.6 µg/mL). The MIC50 [4] was 488 µM (≈ 91.4 µg/mL), the MIC50 [5, 21] was over 500 µM and the MIC50 ([6]; Mycobacterium avium, 96 h) was over 500 µM. It also gave an MIC50 [7, 22] of over 500 µM, an MIC50 ([8]; Staphylococcus aureus) of over 500 µM and an MIC50 ([9]; Escherichia coli) of over 500 µM. The “RBCs HC50” value [12] was >1,000 μM, the CC50 at 24 h [16] was over 1000 µM and the CC50 at 24 h [17] was over 1000 µM.
